Assay results: publication PMC5290327, “SC83288 is a clinical development candidate for the treatment of severe malaria” (Nature Communications, 2017)

Columns and labels:
Assay in all cases: KINOMEscan
Format in all cases: binding
Conditions in all cases: read-out: Remaining enzyme activity
[1] = target: T1, EGFR(L858R, T790M) (Homo sapiens, UniProt P00533, L858R/T790M)
T1 construct: purchased Ambit (DiscoverX) KINOMEscan; Cerep
Method: (§1) The KINOMEscan was carried out by Ambit (San Diego, USA) according to a previously established protocol. The experiment was based on a competition binding assay that quantitatively measures the ability of a compound to compete with an immobilized, active-site directed ligand. The assay is performed by combining three components: DNA-tagged kinase; immobilized ligand; and a test compound. The ability of the test compound to compete with the immobilized ligand is measured via quantitative PCR of the DNA tag.
(§2) For most assays, kinase-tagged T7 phage strains were grown in parallel in 24-well blocks in an Escherichia coli host derived from the BL21 strain. E. coli were grown to log-phase and infected with T7 phage from a frozen stock and incubated with shaking at 32 °C until lysis (90–150 min). The lysates were centrifuged (6,000g) and filtered (0.2 μm) to remove cell debris. The remaining kinases were produced in HEK-293 cells (Sigma Aldrich, catalogue number: 85120602) and subsequently tagged with DNA for quantitative PCR detection. […] The liganded beads were blocked with excess biotin and washed with blocking buffer (SeaBlock (Pierce), 1% bovine serum albumin, 0.05% Tween 20 and 1 mM dithiothreitol) to remove unbound ligand and to reduce non-specific phage binding. […] SC81458 was prepared as 40x stock in 100% DMSO and directly diluted into the assay to a final concentration of 10 μM. All reactions were performed in polypropylene 384-well plates in a final volume of 0.04 ml. […] The kinase concentration in the eluates was measured by quantitative PCR.

[2] = target: T2, ALK (Homo sapiens, UniProt Q9UM73)
T2 construct: purchased Ambit (DiscoverX) KINOMEscan; Cerep
Method: as §1, §2

[3] = target: T3, FGFR4 (Homo sapiens, UniProt P22455)
T3 construct: purchased Ambit (DiscoverX) KINOMEscan; Cerep
Method: as §1, §2

[4] = target: T4, MARK3 (Homo sapiens, UniProt P27448)
T4 construct: purchased Ambit (DiscoverX) KINOMEscan; Cerep
Method: as §1, §2

[5] = target: T5, CDC2L2 (Homo sapiens, UniProt Q9UQ88)
T5 construct: purchased Ambit (DiscoverX) KINOMEscan; Cerep
Method: as §1, §2

[6] = target: T6, KIT (Homo sapiens, UniProt P10721)
T6 construct: purchased Ambit (DiscoverX) KINOMEscan; Cerep
Method: as §1, §2

[7] = target: T7, WEE2 (Homo sapiens, UniProt P0C1S8)
T7 construct: purchased Ambit (DiscoverX) KINOMEscan; Cerep
Method: as §1, §2

[8] = target: T8, CAMK1g (Homo sapiens, UniProt Q96NX5)
T8 construct: purchased Ambit (DiscoverX) KINOMEscan; Cerep
Method: as §1, §2

[9] = target: T9, MLK2 (Homo sapiens, UniProt Q02779)
T9 construct: purchased Ambit (DiscoverX) KINOMEscan; Cerep
Method: as §1, §2

[10] = target: T10, DAPK2 (Homo sapiens, UniProt Q9UIK4)
T10 construct: purchased Ambit (DiscoverX) KINOMEscan; Cerep
Method: as §1, §2

[11] = target: T11, SRPK2 (Homo sapiens, UniProt P78362)
T11 construct: purchased Ambit (DiscoverX) KINOMEscan; Cerep
Method: as §1, §2

[12] = target: T12, AKT2 (Homo sapiens, UniProt P31751)
T12 construct: purchased Ambit (DiscoverX) KINOMEscan; Cerep
Method: as §1, §2

[13] = target: T13, FLT3(K663Q) (Homo sapiens, UniProt P36888, K663Q)
T13 construct: purchased Ambit (DiscoverX) KINOMEscan; Cerep
Method: as §1, §2

[14] = target: T14, CDK5 (Homo sapiens, UniProt Q00535)
T14 construct: purchased Ambit (DiscoverX) KINOMEscan; Cerep
Method: as §1, §2

[15] = target: T15, PKN2 (Homo sapiens, UniProt Q16513)
T15 construct: purchased Ambit (DiscoverX) KINOMEscan; Cerep
Method: as §1, §2

[16] = target: T16, GSK3b (Homo sapiens, UniProt P49841)
T16 construct: purchased Ambit (DiscoverX) KINOMEscan; Cerep
Method: as §1, §2

[17] = target: T17, PAK7 (Homo sapiens, UniProt Q9P286)
T17 construct: purchased Ambit (DiscoverX) KINOMEscan; Cerep
Method: as §1, §2

[18] = target: T18, FLT3(N841I) (Homo sapiens, UniProt P36888, N841I)
T18 construct: purchased Ambit (DiscoverX) KINOMEscan; Cerep
Method: as §1, §2

[19] = target: T19, EPHA7 (Homo sapiens, UniProt Q15375)
T19 construct: purchased Ambit (DiscoverX) KINOMEscan; Cerep
Method: as §1, §2

[20] = target: T20, TYRO3 (Homo sapiens, UniProt Q06418)
T20 construct: purchased Ambit (DiscoverX) KINOMEscan; Cerep
Method: as §1, §2

[21] = target: T21, GAK (Homo sapiens, UniProt O14976)
T21 construct: purchased Ambit (DiscoverX) KINOMEscan; Cerep
Method: as §1, §2

[22] = target: T22, YANK3 (Homo sapiens, UniProt Q86UX6)
T22 construct: purchased Ambit (DiscoverX) KINOMEscan; Cerep
Method: as §1, §2

[23] = target: T23, GSK3a (Homo sapiens, UniProt P49840)
T23 construct: purchased Ambit (DiscoverX) KINOMEscan; Cerep
Method: as §1, §2

[24] = target: T24, SYK (Homo sapiens, UniProt P43405)
T24 construct: purchased Ambit (DiscoverX) KINOMEscan; Cerep
Method: as §1, §2

[25] = target: T25, CLK4 (Homo sapiens, UniProt Q9HAZ1)
T25 construct: purchased Ambit (DiscoverX) KINOMEscan; Cerep
Method: as §1, §2

[26] = target: T26, BMPR2 (Homo sapiens, UniProt Q13873)
T26 construct: purchased Ambit (DiscoverX) KINOMEscan; Cerep
Method: as §1, §2

[27] = target: T27, MAPKAPK2 (Homo sapiens, UniProt P49137)
T27 construct: purchased Ambit (DiscoverX) KINOMEscan; Cerep
Method: as §1, §2

[28] = target: T28, ICK (Homo sapiens, UniProt Q9UPZ9)
T28 construct: purchased Ambit (DiscoverX) KINOMEscan; Cerep
Method: as §1, §2

[29] = target: T29, MAP3K15 (Homo sapiens, UniProt Q6ZN16)
T29 construct: purchased Ambit (DiscoverX) KINOMEscan; Cerep
Method: as §1, §2

[30] = target: T30, p38-delta (Homo sapiens, UniProt O15264)
T30 construct: purchased Ambit (DiscoverX) KINOMEscan; Cerep
Method: as §1, §2

[31] = target: T31, NEK6 (Homo sapiens, UniProt Q9HC98)
T31 construct: purchased Ambit (DiscoverX) KINOMEscan; Cerep
Method: as §1, §2

[32] = target: T32, GRK7 (Homo sapiens, UniProt Q8WTQ7)
T32 construct: purchased Ambit (DiscoverX) KINOMEscan; Cerep
Method: as §1, §2

[33] = target: T33, AXL (Homo sapiens, UniProt P30530)
T33 construct: purchased Ambit (DiscoverX) KINOMEscan; Cerep
Method: as §1, §2

[34] = target: T34, PIK3C2b (Homo sapiens, UniProt O00750)
T34 construct: purchased Ambit (DiscoverX) KINOMEscan; Cerep
Method: as §1, §2

T22 sequence (Q86UX6 whole entry): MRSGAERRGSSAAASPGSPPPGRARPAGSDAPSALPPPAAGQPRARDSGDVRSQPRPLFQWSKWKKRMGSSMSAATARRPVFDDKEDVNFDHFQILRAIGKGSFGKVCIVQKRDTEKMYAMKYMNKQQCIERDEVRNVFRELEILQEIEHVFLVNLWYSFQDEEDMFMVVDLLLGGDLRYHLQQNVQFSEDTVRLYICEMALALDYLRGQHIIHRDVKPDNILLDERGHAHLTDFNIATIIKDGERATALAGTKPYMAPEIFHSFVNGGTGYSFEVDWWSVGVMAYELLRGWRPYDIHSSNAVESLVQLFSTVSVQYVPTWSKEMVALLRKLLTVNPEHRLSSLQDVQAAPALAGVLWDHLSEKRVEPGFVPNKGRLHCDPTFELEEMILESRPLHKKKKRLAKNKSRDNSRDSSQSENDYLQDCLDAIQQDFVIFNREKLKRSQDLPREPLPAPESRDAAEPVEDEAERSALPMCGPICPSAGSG
T33 sequence (P30530 26-894): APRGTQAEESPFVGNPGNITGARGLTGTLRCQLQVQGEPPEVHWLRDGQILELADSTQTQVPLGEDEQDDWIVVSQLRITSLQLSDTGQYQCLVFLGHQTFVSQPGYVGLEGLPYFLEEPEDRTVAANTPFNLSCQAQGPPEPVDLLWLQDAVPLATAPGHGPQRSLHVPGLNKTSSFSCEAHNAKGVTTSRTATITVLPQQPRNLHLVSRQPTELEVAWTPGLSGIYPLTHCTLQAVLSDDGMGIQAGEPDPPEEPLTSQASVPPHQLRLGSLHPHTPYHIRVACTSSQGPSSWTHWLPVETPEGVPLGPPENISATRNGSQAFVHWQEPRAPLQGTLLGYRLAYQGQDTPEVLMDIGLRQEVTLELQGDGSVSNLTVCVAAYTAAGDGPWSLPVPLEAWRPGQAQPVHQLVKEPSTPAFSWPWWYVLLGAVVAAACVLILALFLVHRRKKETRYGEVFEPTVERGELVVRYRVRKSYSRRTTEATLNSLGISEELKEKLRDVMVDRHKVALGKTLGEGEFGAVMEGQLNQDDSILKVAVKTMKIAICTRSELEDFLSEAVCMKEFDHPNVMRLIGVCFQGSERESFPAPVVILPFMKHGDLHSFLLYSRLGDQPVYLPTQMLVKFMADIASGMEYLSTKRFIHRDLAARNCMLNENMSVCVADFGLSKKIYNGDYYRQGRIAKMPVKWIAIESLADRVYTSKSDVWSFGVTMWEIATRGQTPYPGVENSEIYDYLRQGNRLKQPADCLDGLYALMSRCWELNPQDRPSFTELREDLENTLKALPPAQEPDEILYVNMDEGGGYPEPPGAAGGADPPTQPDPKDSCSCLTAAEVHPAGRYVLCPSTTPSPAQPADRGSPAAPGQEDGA
T3 sequence (P22455 22-802): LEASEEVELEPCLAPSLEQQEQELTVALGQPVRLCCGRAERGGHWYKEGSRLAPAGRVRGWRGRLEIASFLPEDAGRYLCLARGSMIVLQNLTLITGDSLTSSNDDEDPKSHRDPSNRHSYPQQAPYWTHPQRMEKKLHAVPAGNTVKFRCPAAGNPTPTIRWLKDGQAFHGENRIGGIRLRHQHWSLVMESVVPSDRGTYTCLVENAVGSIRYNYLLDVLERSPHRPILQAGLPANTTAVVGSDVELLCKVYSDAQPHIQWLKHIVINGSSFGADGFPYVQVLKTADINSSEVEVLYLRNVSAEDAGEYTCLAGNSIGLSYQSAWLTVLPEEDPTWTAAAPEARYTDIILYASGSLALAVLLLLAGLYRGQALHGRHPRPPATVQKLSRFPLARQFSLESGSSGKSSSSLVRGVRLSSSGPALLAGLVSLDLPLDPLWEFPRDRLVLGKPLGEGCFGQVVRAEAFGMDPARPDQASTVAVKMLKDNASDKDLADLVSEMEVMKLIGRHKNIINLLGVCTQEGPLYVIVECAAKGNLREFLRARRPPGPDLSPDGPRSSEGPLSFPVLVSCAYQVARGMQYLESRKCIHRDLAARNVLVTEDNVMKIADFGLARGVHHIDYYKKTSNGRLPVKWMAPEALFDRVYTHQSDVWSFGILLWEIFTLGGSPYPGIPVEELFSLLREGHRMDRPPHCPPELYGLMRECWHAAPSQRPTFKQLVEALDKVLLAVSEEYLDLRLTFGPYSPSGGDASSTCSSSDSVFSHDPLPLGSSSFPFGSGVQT
T17 sequence (Q9P286 whole entry): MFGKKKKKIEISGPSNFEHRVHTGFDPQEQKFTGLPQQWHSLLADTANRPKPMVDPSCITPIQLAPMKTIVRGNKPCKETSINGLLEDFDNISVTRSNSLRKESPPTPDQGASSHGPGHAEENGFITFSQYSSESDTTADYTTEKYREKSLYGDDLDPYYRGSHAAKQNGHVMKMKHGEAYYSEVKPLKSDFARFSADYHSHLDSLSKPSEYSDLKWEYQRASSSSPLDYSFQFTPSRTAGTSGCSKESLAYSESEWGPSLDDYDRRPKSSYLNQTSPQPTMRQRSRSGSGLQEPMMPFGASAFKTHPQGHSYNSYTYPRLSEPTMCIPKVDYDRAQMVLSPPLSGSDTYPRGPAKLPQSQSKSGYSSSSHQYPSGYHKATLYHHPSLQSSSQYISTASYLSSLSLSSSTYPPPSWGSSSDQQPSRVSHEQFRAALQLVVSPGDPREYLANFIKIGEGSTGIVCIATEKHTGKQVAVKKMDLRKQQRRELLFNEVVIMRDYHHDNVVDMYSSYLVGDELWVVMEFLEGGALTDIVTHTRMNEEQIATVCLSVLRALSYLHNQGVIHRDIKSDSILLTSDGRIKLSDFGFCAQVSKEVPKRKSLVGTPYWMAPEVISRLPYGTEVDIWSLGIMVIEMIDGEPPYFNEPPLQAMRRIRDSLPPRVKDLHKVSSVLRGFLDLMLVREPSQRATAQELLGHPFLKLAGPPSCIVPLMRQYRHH
T9 sequence (Q02779 whole entry): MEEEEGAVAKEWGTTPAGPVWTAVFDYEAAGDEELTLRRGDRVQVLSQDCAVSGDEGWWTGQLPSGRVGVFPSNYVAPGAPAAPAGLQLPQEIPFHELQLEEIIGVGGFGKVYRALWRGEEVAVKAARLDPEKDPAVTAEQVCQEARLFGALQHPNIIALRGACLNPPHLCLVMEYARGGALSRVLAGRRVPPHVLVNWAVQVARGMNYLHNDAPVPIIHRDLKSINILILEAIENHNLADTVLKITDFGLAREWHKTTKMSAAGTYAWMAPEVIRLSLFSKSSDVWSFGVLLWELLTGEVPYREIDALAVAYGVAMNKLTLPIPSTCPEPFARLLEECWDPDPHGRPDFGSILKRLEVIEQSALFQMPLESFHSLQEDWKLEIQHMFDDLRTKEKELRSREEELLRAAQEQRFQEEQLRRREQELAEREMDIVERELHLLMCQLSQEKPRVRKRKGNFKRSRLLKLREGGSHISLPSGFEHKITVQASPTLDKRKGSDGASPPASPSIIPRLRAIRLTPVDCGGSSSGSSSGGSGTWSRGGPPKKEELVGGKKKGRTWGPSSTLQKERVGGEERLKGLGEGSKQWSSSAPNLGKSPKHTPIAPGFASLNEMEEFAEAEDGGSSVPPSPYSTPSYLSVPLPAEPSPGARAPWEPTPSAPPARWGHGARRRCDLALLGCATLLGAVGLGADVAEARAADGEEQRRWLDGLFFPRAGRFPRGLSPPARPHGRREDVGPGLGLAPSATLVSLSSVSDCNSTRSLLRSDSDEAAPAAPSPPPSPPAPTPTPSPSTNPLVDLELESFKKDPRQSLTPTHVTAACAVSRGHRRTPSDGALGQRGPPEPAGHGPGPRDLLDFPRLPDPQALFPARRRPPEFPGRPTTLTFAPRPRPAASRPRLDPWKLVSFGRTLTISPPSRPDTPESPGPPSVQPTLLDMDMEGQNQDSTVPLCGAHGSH
T6 sequence (P10721 26-976): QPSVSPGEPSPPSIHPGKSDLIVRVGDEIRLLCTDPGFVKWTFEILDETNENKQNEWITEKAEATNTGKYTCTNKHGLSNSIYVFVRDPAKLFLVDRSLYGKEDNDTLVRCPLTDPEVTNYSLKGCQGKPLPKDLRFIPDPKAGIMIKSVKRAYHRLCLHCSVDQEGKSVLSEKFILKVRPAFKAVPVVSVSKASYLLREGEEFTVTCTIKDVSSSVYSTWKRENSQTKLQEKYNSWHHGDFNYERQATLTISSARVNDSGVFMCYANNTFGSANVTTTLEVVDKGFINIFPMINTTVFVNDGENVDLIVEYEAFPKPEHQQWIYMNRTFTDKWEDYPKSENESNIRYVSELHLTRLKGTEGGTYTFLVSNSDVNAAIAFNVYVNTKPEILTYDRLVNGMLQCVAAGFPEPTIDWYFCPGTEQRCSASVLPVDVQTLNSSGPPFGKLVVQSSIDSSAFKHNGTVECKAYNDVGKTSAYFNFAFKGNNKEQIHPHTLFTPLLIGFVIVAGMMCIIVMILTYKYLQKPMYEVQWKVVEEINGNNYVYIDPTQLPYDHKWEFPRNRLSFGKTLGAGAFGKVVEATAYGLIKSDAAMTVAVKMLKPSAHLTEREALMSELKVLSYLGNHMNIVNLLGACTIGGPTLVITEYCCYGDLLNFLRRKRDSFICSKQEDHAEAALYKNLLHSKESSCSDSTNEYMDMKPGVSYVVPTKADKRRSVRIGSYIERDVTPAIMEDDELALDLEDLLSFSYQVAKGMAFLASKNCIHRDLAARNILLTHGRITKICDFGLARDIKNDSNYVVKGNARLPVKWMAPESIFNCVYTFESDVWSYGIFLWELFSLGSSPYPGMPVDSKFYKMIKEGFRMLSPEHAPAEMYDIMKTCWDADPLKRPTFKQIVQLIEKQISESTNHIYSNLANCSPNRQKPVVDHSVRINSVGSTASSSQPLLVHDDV
T31 sequence (Q9HC98 whole entry): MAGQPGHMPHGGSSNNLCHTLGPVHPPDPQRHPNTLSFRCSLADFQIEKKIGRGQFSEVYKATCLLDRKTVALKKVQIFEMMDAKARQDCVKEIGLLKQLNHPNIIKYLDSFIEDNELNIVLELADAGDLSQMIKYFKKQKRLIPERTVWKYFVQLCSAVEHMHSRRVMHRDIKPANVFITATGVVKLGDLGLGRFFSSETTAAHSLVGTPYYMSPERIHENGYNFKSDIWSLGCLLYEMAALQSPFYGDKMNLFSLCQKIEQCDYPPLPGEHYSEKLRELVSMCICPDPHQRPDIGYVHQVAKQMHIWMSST

Compound: CCCCN1CCN(C(=N)c2cccc(NC(=O)Nc3ccc(S(=O)(=O)NCc4ccc(S(N)(=O)=O)cc4)cc3)c2)CC1 [SC81458, 4-(3-(3-((4-butylpiperazin-1-yl)(imino)methyl)phenyl)ureido)-N-(4-sulfamoylbenzyl) benzenesulfonamide]
- remaining binding at 10 µM [1]: 100%
- remaining binding at 10 µM [2]: 100%
- remaining binding at 10 µM [3]: 100%
- remaining binding at 10 µM [4]: 99%
- remaining binding at 10 µM [5]: 100%
- remaining binding at 10 µM [6]: 60%
- remaining binding at 10 µM [7]: 100%
- remaining binding at 10 µM [8]: 98%
- remaining binding at 10 µM [9]: 100%
- remaining binding at 10 µM [10]: 100%
- remaining binding at 10 µM [11]: 93%
- remaining binding at 10 µM [12]: 84%
- remaining binding at 10 µM [13]: 93%
- remaining binding at 10 µM [14]: 100%
- remaining binding at 10 µM [15]: 67%
- remaining binding at 10 µM [16]: 100%
- remaining binding at 10 µM [17]: 100%
- remaining binding at 10 µM [18]: 100%
- remaining binding at 10 µM [19]: 81%
- remaining binding at 10 µM [20]: 79%
- remaining binding at 10 µM [21]: 92%
- remaining binding at 10 µM [22]: 97%
- remaining binding at 10 µM [23]: 100%
- remaining binding at 10 µM [24]: 100%
- remaining binding at 10 µM [25]: 92%
- remaining binding at 10 µM [26]: 100%
- remaining binding at 10 µM [27]: 71%
- remaining binding at 10 µM [28]: 73%
- remaining binding at 10 µM [29]: 100%
- remaining binding at 10 µM [30]: 89%
- remaining binding at 10 µM [31]: 100%
- remaining binding at 10 µM [32]: 100%
- remaining binding at 10 µM [33]: 100%
- remaining binding at 10 µM [34]: 98%
